# Test results as given in patent publication US12268691B2 (Sinopia Biosciences, Inc., priority 2016, dated 2025).
# Columns and labels:
# [1] = system: 433 gene transcriptomic signature; conditions: 10 uM, MCF7 cells; FIG. 3
# CYP1A2 = target: T1, CYP1A2 (Homo sapiens, UniProt P05177); conditions: cited from earlier work
# T1 sequence (P05177 1-516): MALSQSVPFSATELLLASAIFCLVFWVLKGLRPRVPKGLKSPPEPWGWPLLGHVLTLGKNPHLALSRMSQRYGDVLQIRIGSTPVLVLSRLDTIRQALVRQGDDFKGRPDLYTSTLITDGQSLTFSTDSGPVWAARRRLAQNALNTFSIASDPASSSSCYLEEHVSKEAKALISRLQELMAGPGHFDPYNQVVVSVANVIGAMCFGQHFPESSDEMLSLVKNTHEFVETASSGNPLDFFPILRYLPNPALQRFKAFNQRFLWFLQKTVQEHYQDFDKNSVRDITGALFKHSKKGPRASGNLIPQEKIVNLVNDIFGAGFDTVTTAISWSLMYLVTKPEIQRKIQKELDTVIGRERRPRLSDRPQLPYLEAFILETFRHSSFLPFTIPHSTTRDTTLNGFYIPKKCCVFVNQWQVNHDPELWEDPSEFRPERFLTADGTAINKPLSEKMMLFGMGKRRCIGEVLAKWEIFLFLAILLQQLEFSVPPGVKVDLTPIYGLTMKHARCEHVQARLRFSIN
structure (smiles),measurement,setting,value
O=C(CCCN1CCC(O)(c2ccc(Cl)cc2)CC1)c1ccc(F)cc1 [haloperidol],"extrapyramidal syndrome propensity score, compound alone",[1],much higher propensity than risperidone
same,interaction with CYP1A2,CYP1A2,has not been shown to interact with haloperidol
